Publication PMC5522078, “Discovery and characterization of small molecules targeting the DNA-binding ETS domain of ERG in prostate cancer” (Oncotarget, 2017)

Key:
[1] = molecular target: T1, ETS domain of ETV4 (Homo sapiens, UniProt P43268); assay: Preliminary NMR spectroscopic experiments, ETV4; format: binding
T1 sequence (P43268 341-421 limits assumed): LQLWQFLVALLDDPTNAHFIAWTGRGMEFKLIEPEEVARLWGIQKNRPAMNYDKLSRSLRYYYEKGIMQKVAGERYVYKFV

[2] = molecular target: T2, ERG-DNA complex (Homo sapiens, UniProt P11308); assay: EMSA with VCaP nuclear lysate; format: binding; details: 55 ng/μl nuclear extract, 4 μM to 8 mM
T2 construct: VCaP (endogenous overexpression); endogenous in cells; host or cells: VCaP (whole cells for A2 and A17; nuclear extract for A16)
T2 sequence (P11308 33-479 limits assumed): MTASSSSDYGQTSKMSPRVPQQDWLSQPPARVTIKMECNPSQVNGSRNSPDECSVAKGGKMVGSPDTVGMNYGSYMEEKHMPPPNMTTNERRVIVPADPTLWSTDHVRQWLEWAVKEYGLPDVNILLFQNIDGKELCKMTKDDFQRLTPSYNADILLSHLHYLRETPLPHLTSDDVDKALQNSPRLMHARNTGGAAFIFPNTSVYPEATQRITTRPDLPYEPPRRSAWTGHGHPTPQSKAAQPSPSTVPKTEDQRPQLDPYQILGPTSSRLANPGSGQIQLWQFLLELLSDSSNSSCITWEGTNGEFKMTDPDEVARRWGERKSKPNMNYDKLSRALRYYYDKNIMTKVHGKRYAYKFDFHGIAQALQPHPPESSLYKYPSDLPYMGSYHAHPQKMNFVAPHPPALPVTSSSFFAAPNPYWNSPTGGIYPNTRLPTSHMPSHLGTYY
Description: For experiments involving ERG from VCaP cells, VCaP nuclear protein was extracted using CelLytic NuCLEAR Extraction Kit (Sigma). […] For subsequent assays, 55 ng/μl of the nuclear extract was mixed with 1 nM of fluorophore-labeled dsDNA, titrated with VPC-18005 (diluted from a DMSO stock) and analyzed by the same EMSA protocol.

[3] = system: RWPE-ERG cells; assay: MTS cell viability assay, RWPE-ERG; format: cell-based; details: increasing concentrations (0.2 to 25 μM), 72 h
Description: Twenty four hours later, 100 μL of medium containing vehicle control or compounds. Each treatment was prepared in triplicate. After a 72 h treatment, cellular viability was assessed using CellTiter 96 ® Aqueous One Solution Cell Proliferation Assay reagent (Promega) according to the manufacturer's instructions. Values were normalized to the DMSO control. page 8: Supplementary Figure 4: VPC-18005 suppresses migration, but not growth of RWPE-1-ERG cells. (A) Cell viability (MTS) of ERG-expressing cells (RWPE-ERG) (closed circle) and non-ERG expressing cells (RWPE-MOCK (open square)) after treatment […] Impact on viability is presented as the mean ± SEM […] (B) RWPE-1-Mock or (C) […] The normalized cell index is a measure of the migration of the cells through the pores of the upper chamber and is used as the migration index. Dotted lines represent 1 standard deviation (SD) of the mean migration rate.

[4] = molecular target: T3, ERG (Homo sapiens, UniProt P11308); assay: ERG protein stability, Western blot after cycloheximide; format: cell-based; details: VCaP cells
T3 construct: VCaP (endogenous overexpression); endogenous in cells; host or cells: VCaP (whole cells for A2 and A17; nuclear extract for A16)
T3 sequence (P11308 33-479 limits assumed): T2 sequence (P11308 33-479 limits assumed)
Description: Cells were lysed on ice with RIPA buffer containing a protease inhibitor cocktail (Pierce). Primary antibodies: ERG (1:1,000, EPR3864(2), Abcam), α-Tubulin (1:20,000, Millipore), Vinculin (1:1,000, Abcam). Immunoreactivity was detected with the use of the goat anti-rabbit or rabbit anti-mouse horseradish peroxidase (HPR)–conjugated secondary antibody (1:10,000) (Santa Cruz), and visualization was achieved by chemiluminescence (Pierce). To inhibit protein synthesis, 10 μM cycloheximide was added for 1 h and then replaced with treatment medium for indicated time frame.

[5] = Murine pharmacodynamics and toxicology studies; format: in vivo, mice
Description: Supplementary Figure 10: (A) In a preliminary study to evaluate in vivo toxicity and establish working oral (PO) doses, Nu/nu mice (n = 4) received a single PO dose of VPC-18005 (100 mg/kg or 500 mg/kg) dissolved in cyclodextrin. Blood was collected directly after injection and at the times indicated. Serum concentration of VPC-18005 was determined for each time point. (B) In a 4 week “repeated dose” study, body weight was measured daily for mice (n = 4) that received a daily dose of VPC-18005 (150 mg/kg BID) dissolved 50% ethanol (PO) or 50% ethanol (Vehicle). Change in weight of each animal was normalized to starting pretreatment weight. (C) Cytotoxicity serum markers of vehicle and VPC-18005 treated animals described in B) were determined and presented as average (Avg. Conc.) and standard deviation (SD) with corresponding paired t-test p values. LC-MS analysis of serum indicators of major organ toxicity (albumin (ALB), alkaline phosphatase (ALP) and alanine aminotransferase (ALT) as indicators of liver dysfunction, amylase (AMY) to test for acute pancreatitis, total bilirubin (TBIL) to assess jaundice, and blood urea nitrogen (BUN) to assess kidney function from endpoint samples

In the case of `CC(C)c1ccc(C=N/N=C2\NC(=O)[C@@H](CC(=O)O)S2)cc1` (stereo in doubt) [VPC-18005, 2-((Z)-2-(((Z)-4-isopropylbenzylidene)hydrazono)-4-oxothiazolidin-5-yl)acetic acid], the “Interaction with the ETS domain of ETV4” value [1] is reported as “interacts”, the “Disruption of ERG-DNA complex formation, VCaP nuclear lysate” value [2] is reported as “disrupted ERG-DNA complex formation” and the “Effect on cell viability (MTS), RWPE cells overexpressing ERG” value [3] is reported as “No effect on cell viability”. For the same compound, the “ERG protein degradation, 4 h” value ([4]; cycloheximide pre-treatment, up to 50 μM for 4 h) was “did not induce ERG degradation”, the “ERG protein degradation, 24 and 48 h” value ([4]; cycloheximide, 24 and 48 h) was “no observable ERG protein degradation” and the “Solubility, stability and oral bioavailability in mice” value ([5]; Nu/nu mice, PO) was “soluble, stable and orally bioavailable”. The “Serum indicators of major organ toxicity (ALB, ALP, ALT, AMY, TBIL, BUN)” value ([5]; mice, 150 mg/kg BID, 4 weeks, endpoint samples) was “no significant impact”, the “General toxicity, repeated dose” value ([5]; mice, 4 week BID at 150 mg/kg PO) was “does not exhibit general toxicity” and the “General toxicity, single dose” value ([5]; mice, single doses of up to 500 mg/kg PO) was “does not exhibit general toxicity”.
